The source of these data is article PMC12598851, “Exploiting Avidity Effects for the Discovery of Low Affinity Protein-Binding Fragments” (Journal of Medicinal Chemistry, 2025).

Experiment [1] deals with T1, glutathione S-transferase (GST) (Schistosoma japonicum, UniProt P08515).
T1 construct: His6 (C); made in house; host or cells: E. coli BL21 (DE3) codon plus RP
As to the kind of experiment: Bead pull-down of compound 2 beads with GST as off-target control. Type of experiment: binding. Particulars: GST 1 μM, stained with labeled antibody.

In a further experiment the target is T2, SA-647 (Streptomyces avidinii, UniProt P22629).
T2 construct: purchased ThermoFisher S3235
As to the kind of experiment: Pooled bead library screen against SA-647 by FACS with LC-MS hit identification. Format: binding. Particulars: about 50-plex pooled beads, SA-647 500 nM, IP+-modified derivatives. The source says:
While the one compound per well screening format employed for the Figures and experiments works well, it will limit throughput for the analysis of much larger fragment libraries in the future. […] A photocleavable linker was placed between the fragment and the bead (Figure a). Beads displaying compounds 2, 3, and the oxazole analog of compound 2 were also constructed with the same architecture. Beads displaying all of these compounds were then mixed together in a single Mobicol tube (approximately 25,000 of each bead type).
The resin was incubated with SA-647 (500 nM, 300 μL) for 1 h at room temperature with gentle rotation.
Prior to releasing the compounds from the resin for analysis, we “clicked” a brominated imidazopyridinium unit (IP^+) to the alkyne unit in the linker of these beads via copper-catalyzed azide–alkyne cycloaddition (Figure a,c insert). This was done for three reasons. The first was to add a chromophore to molecules so that, after release from the beads, they could be detected sensitively using a UV detector on the LC trace. […]
After attachment of the IP^+ tag, the beads were washed with a 1:1 mixture of DMF and DCM and irradiated at 365 nm (4.5 × 10^3 μJ cm^–2) for 1 h in a 3:1 DCM/MeOH mixture to release the ligands from the beads. After evaporation of solvents, the eluate was redissolved in water and analyzed by LC-MS. […]
(In flow cytometry, cells or beads pass a laser one at a time.)

T1 sequence (P08515 whole entry): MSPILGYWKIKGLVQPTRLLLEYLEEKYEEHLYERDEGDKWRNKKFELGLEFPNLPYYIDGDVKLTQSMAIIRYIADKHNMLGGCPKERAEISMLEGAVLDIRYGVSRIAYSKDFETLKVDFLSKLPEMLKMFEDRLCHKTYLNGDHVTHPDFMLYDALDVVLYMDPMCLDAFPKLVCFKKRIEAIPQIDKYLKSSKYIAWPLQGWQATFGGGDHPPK
T2 sequence (P22629 37-163 limits assumed): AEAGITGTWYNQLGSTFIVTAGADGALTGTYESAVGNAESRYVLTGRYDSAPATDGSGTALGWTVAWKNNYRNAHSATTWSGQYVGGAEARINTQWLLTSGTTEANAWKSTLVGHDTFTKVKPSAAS

As for `CC(=O)N(Cc1cccnc1)Cc1nc(C(=O)N(C)CC(=O)NCCOCCOCC(=O)NCC(N)=O)cs1` [Compound 2], in experiment [1], the “binding of GST to bead-displayed compound” value is recorded as “No detectable signal”. On SA-647, the “recovery in sorted hit pool (LC-MS peak)” value was “major peak”.
